Columns and labels:
[1] = system: SK-MEL-28; assay: Anticancer activity against human SK-MEL-28 cells after 48 hrs by SRB assay; type: functional; conditions: SK-MEL-28, 48 h
[2] = system: UACC-257; assay: Anticancer activity against human UACC257 cells after 48 hrs by SRB assay; type: functional; conditions: UACC-257, 48 h
[3] = system: Rattus norvegicus; assay: Ulcerogenic activity in fasted Wistar albino rat at 60 mg/kg, po administered as 3 dose measured after 6 hrs post last dose; type: toxicity, organism-based; parameters: dose 60 mg/kg, route oral; conditions: in vivo
[4] = system: Mus musculus; assay: Toxicity in Swiss albino mouse assessed as behavioral change at 100 mg/kg, po measured up to 24 hrs; type: organism-based; parameters: dose 100 mg/kg, route oral; conditions: in vivo
[5] = system: Mus musculus; assay: Toxicity in Swiss albino mouse assessed as mortality at 100 mg/kg, po measured up to 24 hrs; type: organism-based; parameters: dose 100 mg/kg, route oral; conditions: in vivo
[6] = molecular target: Prostaglandin G/H synthase 1 (Bos taurus, UniProt O62664); assay: Inhibition of bovine COX1 assessed as PGE2 formation preincubated for 10 mins by ELISA
Sequence of Prostaglandin G/H synthase 1 (O62664 whole entry): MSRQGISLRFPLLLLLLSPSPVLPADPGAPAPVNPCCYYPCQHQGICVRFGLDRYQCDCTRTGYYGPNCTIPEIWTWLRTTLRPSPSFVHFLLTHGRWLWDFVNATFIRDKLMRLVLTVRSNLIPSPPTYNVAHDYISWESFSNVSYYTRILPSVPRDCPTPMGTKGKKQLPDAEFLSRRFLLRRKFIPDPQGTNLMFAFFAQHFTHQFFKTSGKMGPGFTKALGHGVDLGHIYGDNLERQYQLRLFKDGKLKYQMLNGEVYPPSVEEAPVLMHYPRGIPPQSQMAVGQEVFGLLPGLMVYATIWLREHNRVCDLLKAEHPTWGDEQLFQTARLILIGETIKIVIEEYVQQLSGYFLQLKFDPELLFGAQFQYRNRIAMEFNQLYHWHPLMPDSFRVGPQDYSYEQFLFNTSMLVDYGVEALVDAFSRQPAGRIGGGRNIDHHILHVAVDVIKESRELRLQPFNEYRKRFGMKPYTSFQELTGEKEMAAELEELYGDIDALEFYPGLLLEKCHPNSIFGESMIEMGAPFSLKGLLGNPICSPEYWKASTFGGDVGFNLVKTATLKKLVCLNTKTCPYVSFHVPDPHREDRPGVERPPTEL

[7] = system: HL-60(TB); assay: Anticancer activity against human HL-60(TB) cells after 48 hrs by SRB assay; type: functional; conditions: HL-60, 48 h
[8] = system: K562; assay: Anticancer activity against human K562 cells after 48 hrs by SRB assay; type: functional; conditions: K562, 48 h
[9] = system: SR; assay: Anticancer activity against human SR cells after 48 hrs by SRB assay; type: functional
[10] = system: HOP-92; assay: Anticancer activity against human HOP92 cells after 48 hrs by SRB assay; type: functional; conditions: HOP-92, 48 h
[11] = system: NCI-H23; assay: Anticancer activity against human NCI-H23 cells after 48 hrs by SRB assay; type: functional; conditions: NCI-H23, 48 h
[12] = system: COLO 205; assay: Anticancer activity against human COLO205 cells after 48 hrs by SRB assay; type: functional; conditions: COLO 205, 48 h
[13] = system: HCC 2998; assay: Anticancer activity against human HCC2998 cells after 48 hrs by SRB assay; type: functional; conditions: HCC 2998, 48 h
[14] = system: SF-268; assay: Anticancer activity against human SF268 cells after 48 hrs by SRB assay; type: functional; conditions: SF-268, 48 h; for CC50: read-out: LC50 (the source's name)
[15] = system: SF-539; assay: Anticancer activity against human SF539 cells after 48 hrs by SRB assay; type: functional; conditions: SF-539, 48 h
[16] = system: SNB-19; assay: Anticancer activity against human SNB19 cells after 48 hrs by SRB assay; type: functional; conditions: SNB-19, 48 h
[17] = system: OVCAR-4; assay: Anticancer activity against human OVCAR4 cells after 48 hrs by SRB assay; type: functional; conditions: OVCAR-4, 48 h
[18] = system: CAKI-1; assay: Anticancer activity against human Caki1 cells after 48 hrs by SRB assay; type: functional; conditions: CAKI-1, 48 h; for CC50: read-out: LC50 (the source's name)
[19] = system: SN12C; assay: Anticancer activity against human SN12C cells after 48 hrs by SRB assay; type: functional; conditions: for CC50: read-out: LC50 (the source's name)
[20] = system: UO-31; assay: Anticancer activity against human UO31 cells after 48 hrs by SRB assay; type: functional; conditions: UO-31, 48 h; for CC50: read-out: LC50 (the source's name)
[21] = system: MDA-MB-231; assay: Anticancer activity against human MDA-MB-231 cells after 48 hrs by SRB assay; type: functional; conditions: MDA-MB-231, 48 h; for CC50: read-out: LC50 (the source's name)
[22] = system: RPMI-8226; assay: Anticancer activity against human RPMI8226 cells after 48 hrs by SRB assay; type: functional; conditions: RPMI-8226, 48 h
[23] = system: HCT-116; assay: Anticancer activity against human HCT116 cells after 48 hrs by SRB assay; type: functional; conditions: HCT-116, 48 h

Cc1cc(O)c(C2=NN(c3ccc(S(N)(=O)=O)cc3)C(c3ccc(Cl)cc3)C2)c(C)c1Cl (centres undefined)
GI50 [1]: 19.4 µM
TGI [1]: 35.6 µM
GI50 [2]: 26.3 µM
TGI [2]: 63.1 µM
Activity [3]: Non-toxic
Activity [4]: Non-toxic
Activity [5]: Non-toxic
IC50 [6]: 89.5 µM
GI50 [7]: 20.3 µM
TGI [7]: 50 µM
GI50 [8]: 14 µM
TGI [8]: 44.8 µM
GI50 [9]: 14.1 µM
TGI [9]: 37.5 µM
GI50 [10]: 10.3 µM
TGI [10]: 23.6 µM
GI50 [11]: 17.7 µM
TGI [11]: 43.7 µM
GI50 [12]: 12.3 µM
TGI [12]: 25.4 µM
GI50 [13]: 14.8 µM
TGI [13]: 30.9 µM
GI50 [14]: 18.7 µM
TGI [14]: 37.2 µM
CC50 [14]: 73.9 µM
GI50 [15]: 15.7 µM
TGI [15]: 29.3 µM
GI50 [16]: 22.2 µM
TGI [16]: 62.6 µM
GI50 [17]: 13.3 µM
TGI [17]: 27.6 µM
GI50 [18]: 23.3 µM
TGI [18]: 100 µM
CC50 [18]: 100 µM
GI50 [19]: 9.62 µM
TGI [19]: 24.9 µM
CC50 [19]: 63 µM
GI50 [20]: 12.7 µM
TGI [20]: 29.4 µM
CC50 [20]: 68.1 µM
GI50 [21]: 11 µM
TGI [21]: 27.2 µM
CC50 [21]: 67.5 µM

Cc1cc(O)c(C2=NN(c3ccc(S(N)(=O)=O)cc3)C(c3ccc(N(C)C)cc3)C2)c(C)c1Cl (centres undefined)
GI50 [1]: 11.7 µM
LC50 [1]: 48.9 µM
TGI [1]: 23.9 µM
GI50 [2]: 11.9 µM
LC50 [2]: 60.2 µM
TGI [2]: 26.8 µM
GI50 [7]: 7.84 µM
TGI [7]: 20.8 µM
GI50 [8]: 2.24 µM
LC50 [8]: 33.9 µM
TGI [8]: 11.5 µM
GI50 [9]: 1.28 µM
LC50 (concentration killing 50% of cells) [9]: 45.9 µM
TGI [9]: 17.8 µM
GI50 [22]: 3.99 µM
LC50 [22]: 22.3 µM
TGI [22]: 5.02 µM
GI50 [10]: 3.74 µM
LC50 [10]: 41.9 µM
TGI [10]: 17.6 µM
GI50 [11]: 5.82 µM
LC50 (concentration killing 50% of cells) [11]: 47.3 µM
TGI [11]: 19.9 µM
GI50 [12]: 1.69 µM
LC50 [12]: 6.49 µM
TGI [12]: 3.31 µM
GI50 [13]: 6.48 µM
LC50 [13]: 43.8 µM
TGI [13]: 19.1 µM
GI50 [23]: 3.47 µM
LC50 (concentration killing 50% of cells) [23]: 36 µM
TGI [23]: 12.9 µM
GI50 [14]: 5.76 µM
TGI [14]: 19.4 µM
CC50 [14]: 48.9 µM
GI50 [15]: 12.3 µM
LC50 [15]: 49.7 µM
TGI [15]: 24.7 µM
GI50 [16]: 12.4 µM
LC50 [16]: 49.9 µM
TGI [16]: 24.9 µM
GI50 [17]: 7.68 µM
LC50 [17]: 49.7 µM
TGI [17]: 21.2 µM
GI50 [18]: 4.38 µM
TGI [18]: 18.2 µM
CC50 [18]: 45 µM
GI50 [19]: 5.71 µM
TGI [19]: 19.2 µM
CC50 [19]: 43.9 µM
GI50 [20]: 3.78 µM
TGI [20]: 19.2 µM
CC50 [20]: 52.3 µM
GI50 [21]: 2.34 µM
TGI [21]: 11.8 µM
CC50 [21]: 38.7 µM
